# “And” between values parts separate entries of the source, which are not always exact repeats. Equal entries are not always repeated. Inconclusive results and toxic doses are left out.
# Test system: BDF1 mice, P388 leukemia ip, median survival T/C
# Test: NCI In Vivo Anticancer Drug Screen. Data for tumor model P388 Leukemia (intraperitoneal) in B6D2F1 (BDF1) mice
# Settings: endpoint: median survival time, higher = longer survival
# Procedure, shortened: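 Each value expresses how treatment altered survival: treated-mouse outcome over vehicle-mouse outcome, both groups bearing the transplanted tumour.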
# [1] = dose: 100.0 mg/kg/injection, schedule: Q01DX001 (ip), vehicle: saline with Tween-80
# [2] = dose: 200.0 mg/kg/injection, schedule: Q01DX001 (ip), vehicle: saline with Tween-80
# [3] = dose: 400.0 mg/kg/injection, schedule: Q01DX001 (ip), vehicle: saline with Tween-80
# [4] = dose: 50.0 mg/kg/injection, schedule: Q01DX009 (ip), vehicle: saline with Tween-80
# [5] = dose: 100.0 mg/kg/injection, schedule: Q01DX009 (ip), vehicle: saline with Tween-80
# [6] = dose: 200.0 mg/kg/injection, schedule: Q01DX009 (ip), vehicle: saline with Tween-80
# [7] = dose: 25.0 mg/kg/injection, schedule: Q01DX009 (ip), vehicle: saline with Tween-80
# [8] = dose: 200.0 mg/kg/injection, schedule: Q04DX003 (ip), vehicle: saline with Tween-80
# [9] = dose: 50.0 mg/kg/injection, schedule: Q04DX003 (ip), vehicle: saline with Tween-80
# [10] = dose: 100.0 mg/kg/injection, schedule: Q04DX003 (ip), vehicle: saline with Tween-80
# [11] = dose: 0.75 mg/kg/injection, schedule: Q01DX009 (ip), vehicle: saline
# [12] = dose: 1.5 mg/kg/injection, schedule: Q01DX009 (ip), vehicle: saline
# [13] = dose: 3.0 mg/kg/injection, schedule: Q01DX009 (ip), vehicle: saline
# [14] = dose: 400.0 mg/kg/injection, schedule: Q01DX009 (ip), vehicle: saline with Tween-80
smiles,measurement,setting,value
CC(C)=C(B1OC(C)(C)C(C)(C)O1)B1OC(C)(C)C(C)(C)O1,T/C,[1],110 % of control
same,T/C,[2],105 % of control
same,T/C,[3],105 % of control
Cc1noc2nc[nH]c(=O)c12,T/C,"dose: 100.0 mg/kg/injection, schedule: Q04DX002 (ip), vehicle: saline with Tween-80",107 % of control
same,T/C,"dose: 200.0 mg/kg/injection, schedule: Q04DX002 (ip), vehicle: saline with Tween-80",106 % of control
same,T/C,"dose: 400.0 mg/kg/injection, schedule: Q04DX002 (ip), vehicle: saline with Tween-80",94 % of control
CC(C)NC(=O)N(C(=O)C(F)(F)F)C(C)C,T/C,[4],105 % of control
same,T/C,[5],94 % of control
same,T/C,[6],95 % of control
O=c1onc(-c2ccc(Cl)cc2)c2ccccc12,T/C,[7],105 % of control
same,T/C,[4],94 % of control
same,T/C,[5],102 % of control
CCCCCCCCCCCCCC(=O)CC,T/C,"dose: 85.0 mg/kg/injection, schedule: Q04DX003 (ip), vehicle: saline with Tween-80",91 % of control
same,T/C,"dose: 135.0 mg/kg/injection, schedule: Q04DX003 (ip), vehicle: saline with Tween-80",91 % of control
same,T/C,[8],87 % of control
CSc1nc2[nH]cnc(=S)c2[nH]1,T/C,"dose: 6.25 mg/kg/injection, schedule: Q01DX009 (ip), vehicle: saline with Tween-80",104 % of control
same,T/C,"dose: 12.5 mg/kg/injection, schedule: Q01DX009 (ip), vehicle: saline with Tween-80",104 % of control
same,T/C,[7],100 % of control
CN1CC(C(=O)N2CCCCC2)C=C2c3cccc4[nH]cc(c34)CC21 (centres undefined),T/C,"dose: 3.12 mg/kg/injection, schedule: Q01DX009 (ip), vehicle: saline",95 % of control
same,T/C,"dose: 6.25 mg/kg/injection, schedule: Q01DX009 (ip), vehicle: saline",113 % of control
same,T/C,"dose: 12.5 mg/kg/injection, schedule: Q01DX009 (ip), vehicle: saline",104 % of control
same,T/C,"dose: 25.0 mg/kg/injection, schedule: Q04DX003 (ip), vehicle: saline",116 % of control
same,T/C,"dose: 50.0 mg/kg/injection, schedule: Q04DX003 (ip), vehicle: saline",87 % of control
CSc1ccc(OC(=O)Nc2ccccc2F)cc1,T/C,[9],90 % of control
same,T/C,[10],100 % of control
same,T/C,[8],109 % of control
CC(C)c1ccccc1OS(=O)(=O)c1ccc([N+](=O)[O-])cc1,T/C,"dose: 100.0 mg/kg/injection, schedule: Q04DX003 (ip), vehicle: saline sonified",90 % of control
same,T/C,"dose: 200.0 mg/kg/injection, schedule: Q04DX003 (ip), vehicle: saline sonified",95 % of control
same,T/C,"dose: 400.0 mg/kg/injection, schedule: Q04DX003 (ip), vehicle: saline sonified",95 % of control
CCOc1ccc(Nc2cc([N+](=O)[O-])ccc2C(=O)O)cc1,T/C,[9],100 % of control
same,T/C,[10],90 % of control
same,T/C,[8],90 % of control
C=CC(=O)NC12CC3CC(CC(C3)C1)C2,T/C,[10],95 % of control
same,T/C,[8],95 % of control
O=C1c2ccccc2C(=O)c2c(NCCNCCNCCO)ccc(NCCNCCNCCO)c21,T/C,"dose: 25.0 mg/kg/injection, schedule: Q01DX009 (ip), vehicle: water",100 % of control
same,T/C,"dose: 50.0 mg/kg/injection, schedule: Q01DX009 (ip), vehicle: water",113 % of control
same,T/C,"dose: 100.0 mg/kg/injection, schedule: Q01DX009 (ip), vehicle: water",115 % of control
CC1(C)CC(C)(OC(=O)c2ccccc2)[N+]([O-])=N1 (centres undefined),T/C,"dose: 25.0 mg/kg/injection, schedule: Q01DX005 (ip), vehicle: other",108 % of control
same,T/C,"dose: 50.0 mg/kg/injection, schedule: Q01DX005 (ip), vehicle: other",117 % of control
same,T/C,"dose: 100.0 mg/kg/injection, schedule: Q01DX005 (ip), vehicle: other",99 % of control
same,T/C,"dose: 200.0 mg/kg/injection, schedule: Q01DX005 (ip), vehicle: other",101 % of control
same,T/C,"dose: 400.0 mg/kg/injection, schedule: Q01DX005 (ip), vehicle: other",108 % of control
COC1=C(C2=C(OC)C(=O)c3cc4oc(C)cc(=O)c4c(O)c3C2=O)C(=O)c2c(cc3oc(C)cc(=O)c3c2O)C1=O,T/C,"dose: 0.37 mg/kg/injection, schedule: Q01DX009 (ip), vehicle: saline",99 % of control
same,T/C,[11],105 % of control
same,T/C,[12],111 % of control
same,T/C,[13],101 % of control
Nc1ncn(C2OC(CO)C(O)C2O)c(=O)n1 (centres undefined),T/C,"dose: 0.16 mg/kg/injection, schedule: Q01DX009 (ip), vehicle: saline",91 % of control
same,T/C,"dose: 0.25 mg/kg/injection, schedule: Q01DX009 (ip), vehicle: saline",116 % of control
same,T/C,"dose: 0.38 mg/kg/injection, schedule: Q01DX009 (ip), vehicle: saline",150 % of control
same,T/C,[11],181 % of control
same,T/C,"dose: 0.9 mg/kg/injection, schedule: Q01DX009 (ip), vehicle: saline",210 % of control
same,T/C,"dose: 1.0 mg/kg/injection, schedule: Q01DX005 (ip), vehicle: saline",166 % of control
same,T/C,[12],195 % of control and 202 % of control
same,T/C,"dose: 1.9 mg/kg/injection, schedule: Q01DX009 (ip), vehicle: saline",235 % of control
same,T/C,"dose: 2.0 mg/kg/injection, schedule: Q01DX005 (ip), vehicle: saline",201 % of control
same,T/C,"dose: 2.2 mg/kg/injection, schedule: Q01DX009 (ip), vehicle: saline",235 % of control and 236 % of control and 216 % of control
same,T/C,[13],100 % of control
same,T/C,"dose: 3.3 mg/kg/injection, schedule: Q01DX009 (ip), vehicle: saline",260 % of control and 275 % of control and 280 % of control
same,T/C,"dose: 4.0 mg/kg/injection, schedule: Q01DX005 (ip), vehicle: saline",204 % of control
same,T/C,"dose: 4.25 mg/kg/injection, schedule: Q04DX003 (ip), vehicle: saline",172 % of control
same,T/C,"dose: 5.0 mg/kg/injection, schedule: Q01DX009 (ip), vehicle: saline",254 % of control and 336 % of control and 365 % of control
same,T/C,"dose: 5.0 mg/kg/injection, schedule: Q04DX004 (ip), vehicle: saline",207 % of control
same,T/C,"dose: 6.0 mg/kg/injection, schedule: Q01DX009 (ip), vehicle: saline",104 % of control
same,T/C,"dose: 6.48 mg/kg/injection, schedule: Q04DX003 (ip), vehicle: saline",220 % of control
same,T/C,"dose: 7.0 mg/kg/injection, schedule: Q04DX004 (ip), vehicle: saline",216 % of control
same,T/C,"dose: 7.5 mg/kg/injection, schedule: Q01DX009 (ip), vehicle: saline",100 % of control
same,T/C,"dose: 8.5 mg/kg/injection, schedule: Q01DX009 (ip), vehicle: saline",90 % of control
same,T/C,"dose: 10.0 mg/kg/injection, schedule: Q04DX004 (ip), vehicle: saline",112 % of control and 219 % of control
same,T/C,"dose: 10.8 mg/kg/injection, schedule: Q04DX003 (ip), vehicle: saline",177 % of control
same,T/C,"dose: 11.0 mg/kg/injection, schedule: Q04DX004 (ip), vehicle: saline",248 % of control
same,T/C,"dose: 12.0 mg/kg/injection, schedule: Q04DX003 (ip), vehicle: saline",225 % of control
same,T/C,"dose: 15.0 mg/kg/injection, schedule: Q04DX004 (ip), vehicle: saline",226 % of control and 106 % of control
same,T/C,"dose: 16.0 mg/kg/injection, schedule: Q04DX004 (ip), vehicle: saline",272 % of control
same,T/C,"dose: 19.0 mg/kg/injection, schedule: Q04DX003 (ip), vehicle: saline",233 % of control
same,T/C,"dose: 20.0 mg/kg/injection, schedule: Q04DX004 (ip), vehicle: saline",165 % of control
same,T/C,"dose: 44.0 mg/kg/injection, schedule: Q01DX001 (ip), vehicle: saline",176 % of control
same,T/C,"dose: 49.0 mg/kg/injection, schedule: Q01DX001 (ip), vehicle: saline",170 % of control
same,T/C,"dose: 73.0 mg/kg/injection, schedule: Q01DX001 (ip), vehicle: saline",176 % of control and 182 % of control
same,T/C,"dose: 110.0 mg/kg/injection, schedule: Q01DX001 (ip), vehicle: saline",157 % of control and 190 % of control
same,T/C,"dose: 150.0 mg/kg/injection, schedule: Q01DX001 (ip), vehicle: saline",120 % of control
Nc1nc(N)c(N=O)c(Nc2ccc(Br)cc2)n1,T/C,[5],104 % of control
same,T/C,[6],113 % of control
same,T/C,[14],95 % of control
Cc1cccc(C(=O)O)[n+]1[O-],T/C,[5],95 % of control
same,T/C,[6],90 % of control
same,T/C,[14],90 % of control
C=CCOc1ccc([N+](=O)[O-])cc1[N+](=O)[O-],T/C,[1],100 % of control
same,T/C,[2],105 % of control
same,T/C,[3],100 % of control

# — PubChem BioAssay AID328 (DTP/NCI, 2004)
